Source: patent US20230381192A1, “METHODS FOR CONTROLLING AND PREDICTING RECOVERY AFTER NMBA ADMINISTRATION” (Cornell University, priority 2020, published 2023)
Where two headings read alike, the source gives them in different places.

Key:
[1] = Phase I pharmacokinetics after single IV bolus; type: in vivo; settings: both sexes, human, plasma, iv, 0.14 mg/kg, single IV bolus 0.14 mg/kg (n = 4)
Experimental: (§1) (Abstract available in the final supplement of the Journal of Anesthesia and Analgesia, May 2020 (Volume 30, Issue pages 73-74), which is incorporated herein by reference. Healthy volunteers (n=34) aged 18 to 55 of either gender gave informed consent to an 1RB-approved Phase I protocol, NMB was measured by mechanomyography during sevoflurane (0.5 MAC)/N20 (70%) anesthesia. Each volunteer received a single IV bolus of RP1000,

Healthy volunteers [2] = assay: Phase I: NMB measured by mechanomyography (twitch T1, TOFR) in healthy volunteers under sevoflurane/N2O; type: in vivo, human; settings: for mean time to 95% T1 recovery: spontaneous recovery
Text: Twitch Height: A peripheral nerve stimulator that applies supramaximal. stimuli to the ulnar nerve at the wrist via surface electrodes was used for neuromuscular monitoring. Following anesthesia induction, single twitch stimuli (0.10 Hz) may be delivered continuously during a 15- to 20- minute period to establish baseline twitch height. Single twitch may continue during and following NMBA administration.
Train-of-Four twitch stimulation pattern ratio (TOFR): The TOP delivers 4 supramaximal electrical impulses that involve four equally strong twitches of the stimulated muscle. A fade of the twitches appears when the neuromuscular blockade increases. Comparison of the fourth twitch (T4) to the first twitch (T1) provides the TOFR.
as §1
An ED95 dose of 0.08 mg/kg was established under sevoflurane anesthesia and a dose of 0.14 mg/kg led to 100% twitch suppression in all subjects. At doses below 0,08 mg/kg, (n=18) 100% twitch inhibition occurred in NONE of the volunteers. […] volunteers, however, who were given doses of 0.08, 0.10, or 0.14 mg/kg, developed 100% block: (n=2 of 6 at 0.08, 6 of 6 at 0.10, and 4 of 4 at 0,14 mg/kg).
During spontaneous recovery from 100% block, in all volunteers, TOE stimulation was applied to the ulnar nerve every 20 seconds and the response of the thumb was monitored continuously until T1 of TOE had recovered to 95% of baseline and TOFR had reached 0.90. The total duration of block was calculated from injection to recovery of T1 to 95 percent of baseline and to recovery of TOFR to 0.90. The 5-95% recovery intervals during recovery from 100% block were measured, Following the completion of data acquisition for all dosage groups, a comparison was made by ANOVA of the 5-95% recovery times resulting after doses of 0.08, 0.10 and 0.14 mg/kg. Recovery data in the 12 volunteers who developed 100% block were then combined to show a single composite recovery pattern. ANOVA was again done to compare the recovery data (5-95% intervals) for the composite group to the corresponding intervals for the separate dosage groups of 0.08, 0.10, and 0,14 mg/kg.

cats = settings: cited from earlier work
[3] = in vivo; cited from earlier work
Healthy volunteers [4] = assay: Phase I safety and tolerability in humans; type: in vivo, human
Experimental: as §1

[5] = preclinical studies; cited from earlier work
[6] = human, Composite of 0.08, 0.10, 0.14 mg/kg groups (n=12)
[7] = human, dose 0.08 mg/kg, recovery from 100% block
[8] = human, dose 0.1 mg/kg, recovery from 100% block
[9] = human, dose 0.14 mg/kg, recovery from 100% block
[10] = human, doses ≥ED95, approximately

## COc1ccc(C[C@@H]2c3cc(OC)c(OC)cc3CC[N@@+]2(C)CCCOC(=O)/C=C/C(=O)OCCC[N@+]2(C)CCc3cc(OC)c(OC)cc3[C@H]2Cc2ccc(OC)c(OC)c2)cc1OC.[Cl-].[Cl-] [RP1000]
[1]; read-out: AUClast, Mean (converted)
  AUC(0-t): 481 ng·h/mL
[1]; read-out: CL (clearance), Geometric Mean
  clearance: 366 mL/min
[1]; read-out: CL (clearance), Mean (SD)
  clearance: 368 mL/min
[1]; read-out: Cmax, Geometric Mean
  Cmax: 9120 ng/mL
[1]; read-out: Cmax, Mean
  Cmax: 10300 ng/mL
[1]; read-out: Vss (volume at steady state), Geometric Mean
  Vd: 7.84 L
[1]; read-out: Vss (volume at steady state), Mean
  Vd: 7.96 L
[1]; read-out: t1/2 (terminal elimination half-life), Geometric Mean
  half-life: 24.8 min
[1]; read-out: t1/2 (terminal elimination half-life), Mean (SD)
  half-life: 25 min
Healthy volunteers [2]; human, 0.08 mg/kg
  Time to maximum T1 recovery: about 50 minutes
  mean time to T4:T1>0.9: about 50 minutes
  volunteers who developed 100% block: 2 of 6
  mean time to 95% T1 recovery: approximately 45 minutes
Healthy volunteers [2]; human, 0.10 mg/kg
  Time to maximum T1 recovery: about 70 minutes
  mean time to T4:T1>0.9: about 70 minutes
  volunteers who developed 100% block: 6 of 6
  mean time to 95% T1 recovery: ~55 min
Healthy volunteers [2]; human, 0.1 mg/kg and 0.145 mg/kg doses
  mean time from 5% to 95% T1 recovery: 35 to 40 min
Healthy volunteers [2]; human, 0.14 mg/kg
  Time to maximum T1 recovery: about 70 minutes
  mean time to T4:T1>0.9: ~80 min
  volunteers who developed 100% block: 4 of 4
  mean time to 95% T1 recovery: ~60 min
Healthy volunteers [2]; [6]
  Recovery Time, Recovery Interval 5%-95%: 37.4 ± 6.4 min
  Recovery Time, Recovery Interval 25%-75%: 14.9 ± 3.0 min
Healthy volunteers [2]; [7]
  Recovery Time, Recovery Interval 5%-95%: 34.8 ± 12.5 min
  Recovery Time, Recovery Interval 25%-75%: 15.7 ± 8.4 min
Healthy volunteers [2]; [8]
  Recovery Time, Recovery Interval 5%-95%: 39.4 ± 6.5 min
  Recovery Time, Recovery Interval 25%-75%: 15.1 ± 2.0 min
Healthy volunteers [2]; [9]
  Recovery Time, Recovery Interval 5%-95%: 35.6 ± 3.1 min
  Recovery Time, Recovery Interval 25%-75%: 14.2 ± 0.9 min
Healthy volunteers [2]; human, dose of 0.14 mg/kg, in all subjects
  twitch suppression: 100%
Healthy volunteers [2]; human, doses below 0.08 mg/kg (n=18)
  volunteers in whom 100% twitch inhibition occurred: NONE
Healthy volunteers [2]; human, doses of 0.08, 0.10, or 0.14 mg/kg pooled
  volunteers who developed 100% block: 12 of 14
Healthy volunteers [2]; [10]
  time to 95% T1 suppression: 2 to 3 min
  time to maximum T1 suppression: 3 to 5 min
Healthy volunteers [2]; human, injection
  duration of NMB effect: intermediate duration
  onset of action: rapid onset of action
Healthy volunteers [2]; human, under sevoflurane anesthesia
  ED95 dose: 0.08 mg/kg
Healthy volunteers [2]; humans
  ED 95 for humans: about 0.077 mg/kg
cats
  effects on autonomic or circulatory systems: no observed ill-elects on autonomic or circulatory systems
[3]
  potential for bronchoconstrictive activity or histamine release: low potential
Healthy volunteers [4]; healthy volunteers, 0.02 mg/kg to 0.14 mg/kg
  tolerability: generally well-tolerated
Healthy volunteers [4]; humans, doses up to 0.14 mg/kg
  cardiopulmonary side effects: did not result in significant cardiopulmonary side effects
  signs of histamine release: nor any signs of histamine release
[5]
  time to 100% NMB after administration: ≤ 90 s
